Each block holds one molecule with its values, some of them ahead of it.
What was measured:
DUSP22 = test: Compound profiling, phosphatase panel (Eurofins); type: biochemical; details: relative to DMSO
Description: (§1) 125 Compound profiling - Selected compounds were profiled against a panel of protein
(§2) 126 phosphatases at Eurofins Pharma Discovery Services Ltd., Dundee, UK.

MKP5 (DUSP10) = test: Compound profiling, phosphatase panel (Eurofins); type: biochemical; details: relative to DMSO
Description: as §1, §2

PP2A = test: Compound profiling, phosphatase panel (Eurofins); type: biochemical; details: relative to DMSO
Description: as §1, §2

PTPN11 (SHP-2) = test: Compound profiling, phosphatase panel (Eurofins); type: biochemical; details: relative to DMSO
Description: as §1, §2

PTPN22 = test: Compound profiling, phosphatase panel (Eurofins); type: biochemical; details: relative to DMSO
Description: as §1, §2

PTPN4 (MEG1) = test: Compound profiling, phosphatase panel (Eurofins); type: biochemical; details: relative to DMSO
Description: as §1, §2

PTPN6 (SHP-1) = test: Compound profiling, phosphatase panel (Eurofins); type: biochemical; details: relative to DMSO
Description: as §1, §2

PTPN7 (HePTP) = test: Compound profiling, phosphatase panel (Eurofins); type: biochemical; details: relative to DMSO
Description: as §1, §2

PTPN9 (MEG2) = test: Compound profiling, phosphatase panel (Eurofins); type: biochemical; details: relative to DMSO
Description: as §1, §2

PTPRC (CD45) = test: Compound profiling, phosphatase panel (Eurofins); type: biochemical; details: relative to DMSO
Description: as §1, §2

TMDP (DUSP13) = test: Compound profiling, phosphatase panel (Eurofins); type: biochemical; details: relative to DMSO
Description: as §1, §2

VHR (DUSP3) = test: Compound profiling, phosphatase panel (Eurofins); type: biochemical; details: relative to DMSO
Description: as §1, §2

HCT116 tumors = test: HCT116 tumor xenograft in zebrafish embryos; type: in vivo; details: for primary tumor size at day 3 relative to day 0: 10 µM in water, three days (day 2 to day 5); for metastasis (tumor cells in caudal hematopoietic plexus): 10 µM, 3 dpi
Protocol: (§3) Implantation of HCT116 cells into zebrafish embryos were carried out essentially as previously described. Briefly, HCT116 cells were cultured in McCoy’s medium supplemented with 10% FCS and penicillin/streptomycin until ~80% confluence, then labeled for 30 min at 37 °C in 6 μg/mL 1,1′-dioctadecyl-3,3,3′,3′-tetramethylindocarbocyanine perchlorate (DiI, Sigma) in PBS followed by washing 3x in PBS. Labeled cells were implanted in the perivitelline space of 48 hours post-fertilization (hpf) wildtype (AB) zebrafish embryos, kept from the 1-cell stage in 1-phenyl-2-thiourea (PTU)-containing E3-water. […] As control, embryos were incubated in PTU-E3 with 0.1% DMSO (vehicle). Tumor-bearing embryos were incubated at 36 °C for three days and the change in tumor volume was evaluated as the size of the tumors at three days post-implantation (3 dpi) relative to the size immediately after implantation (0 dpi). Metastasis was evaluated at 3 dpi as the number of tumor cells present in the caudal hematopoietic plexus, the main metastatic site for tumors implanted in the perivitelline space.

zebrafish embryos = type: in vivo; details: 10 µM (effective dose)
Protocol: as §3

[1] = tested on: U2OS Tet-OFF cells expressing HA-CDC25A; test: Cell viability of U2OS Tet-OFF cells overexpressing HA-CDC25A; type: cell-based; details: grown in the absence of tetracycline (HA-CDC25A induced)
Protocol: 65 Enzymatic assays - CDC25A, CDC25B and CDC25C were appropriately diluted in 10
66 mM Tris-HCl pH 8.0, 50 mM NaCl and assayed in 20 mM Tris-HCl pH 8.0, 75 mM
67 NaCl, 0.5 mM EGTA, 1 mM DTT, 0.1 mg/ml BSA and defined concentrations of
68 compounds. Reactions were started by addition of the substrate OMFP (0.1 mM). Assays
69 were carried out at room temperature in duplicate or triplicate using transparent-bottom,
70 V-shaped 96 well plates and read at defined intervals on a Molecular Devices
71 SpectraMax microplate reader (ex: 490 nm / em: 525 nm). IC50 and kinetic parameters
72 calculated from Lineweaver-Burk double-reciprocal plots of the data were obtained using
73 GraphPad Prism software.
75 Cell culture - Wild-type HeLa and Kyoto HeLa cells stably expressing mCherry-H2B
76 were maintained in DMEM+L-Glutamine (Gibco, Life Technologies, USA)
77 supplemented with 5% fetal calf serum (FCS) (Gibco) and penicillin-streptomycin (100
78 U/ml - 100 µg/ml) (Gibco). A549 and Colo741 were grown and maintained like HeLa
79 cells but with 10% FCS. HCT116 were maintained in McCoy’s medium supplemented
80 with 10% FCS and penicillin-streptomycin. U2OS-Tet-OFF cells expressing HA-CDC25
81 were grown and maintained in DMEM+L-Glutamine, 10% Tet-free FCS and penicillin- […]
88 assessed as described 4. Data were plotted with Prism 7® and analyzed by non-linear […]

Compound: O=C1C=C(c2ccc(O)cc2O)C(=O)c2c(O)cccc21 [UPD-140, 2-(2′,4′-dihydroxyphenyl)-8-hydroxy-1,4-naphthoquinone]
remaining activity (%) (DUSP22; UPD-140 1.5 µM): 90 ± 4% | remaining activity (%) (MKP5 (DUSP10); UPD-140 1.5 µM): 109% | remaining activity (%) (PP2A; UPD-140 1.5 µM): 95 ± 2% | remaining activity (%) (PTPN11 (SHP-2); UPD-140 1.5 µM): 96 ± 2% | remaining activity (%) (PTPN22; UPD-140 1.5 µM): 99 ± 5% | remaining activity (%) (PTPN4 (MEG1); UPD-140 1.5 µM): 87 ± 1% | remaining activity (%) (PTPN6 (SHP-1); UPD-140 1.5 µM): 78 ± 2% | remaining activity (%) (PTPN7 (HePTP); UPD-140 1.5 µM): 95% | remaining activity (%) (PTPN9 (MEG2); UPD-140 1.5 µM): 89% | remaining activity (%) (PTPRC (CD45); UPD-140 1.5 µM): 103 ± 2% | remaining activity (%) (TMDP (DUSP13); UPD-140 1.5 µM): 105 ± 4% | remaining activity (%) (VHR (DUSP3); UPD-140 1.5 µM): 106 ± 4% | primary tumor size at day 3 relative to day 0 (HCT116 tumors): reduced to approximately half the size of the initial volume | metastasis (tumor cells in caudal hematopoietic plexus) (HCT116 tumors): reduction in metastasis achieved borderline significance | tolerability / overt toxicity (zebrafish embryos): well tolerated

Compound: O=C1C(c2ccc(O)cc2O)=CC(=O)c2c(O)cccc21 [UPD-176, 5-hydroxy-2-(2,4-dihydroxyphenyl)naphthalene-1,4-dione]
sensitivity of CDC25A overexpressing cells (viability) [1]: remained sensitive | primary tumor size at day 3 relative to day 0 (HCT116 tumors): tendency towards tumor regression, although not significant | metastasis (tumor cells in caudal hematopoietic plexus) (HCT116 tumors): did not appear to be significant | tolerability / overt toxicity (zebrafish embryos): well tolerated

remaining activity (%) (DUSP22; UPD-795 1 µM): 92 ± 3% | remaining activity (%) (MKP5 (DUSP10); UPD-795 1 µM): 107 ± 1% | remaining activity (%) (PP2A; UPD-795 1 µM): 94 ± 1% | remaining activity (%) (PTPN11 (SHP-2); UPD-795 1 µM): 91 ± 14% | remaining activity (%) (PTPN22; UPD-795 1 µM): 98 ± 1% | remaining activity (%) (PTPN4 (MEG1); UPD-795 1 µM): 94 ± 1% | remaining activity (%) (PTPN6 (SHP-1); UPD-795 1 µM): 80 ± 3% | remaining activity (%) (PTPN7 (HePTP); UPD-795 1 µM): 87 ± 2% | remaining activity (%) (PTPN9 (MEG2); UPD-795 1 µM): 85 ± 5% | remaining activity (%) (PTPRC (CD45); UPD-795 1 µM): 97 ± 2% | remaining activity (%) (TMDP (DUSP13); UPD-795 1 µM): 100% | remaining activity (%) (VHR (DUSP3); UPD-795 1 µM): 108 ± 4%
Compound: COc1cccc(SC2=CC(=O)c3cccc(O)c3C2=O)c1 [UPD-795, 2-(3-methoxyphenylthio)-8-hydroxynaphthalene-1,4-dione]

From PMC6362118, “Pharmacophore-guided discovery of CDC25 inhibitors causing cell cycle arrest and tumor regression” (Scientific Reports, 2019)
